Experimental data: the NIST ThermoML archive (doi:10.1016/j.fluid.2018.10.006)
Several values for one entry are separate records, joined by “and”; a condition that tells them apart may be missing. Equal entries are not always repeated. Numbers after ± are expanded uncertainties.

Details: Fluid (supercritical or subcritical phases), Coaxial cylinder method

CCCCCC [hexane]
thermal conductivity
Details	510.36 K	511.55 K
900 kPa	–	0.03854 ± 0.002 W/m/K
1000 kPa	–	0.03823 ± 0.002 W/m/K
1100 kPa	–	0.03832 ± 0.002 W/m/K
1200 kPa	–	0.03859 ± 0.002 W/m/K
1300 kPa	–	0.03877 ± 0.002 W/m/K
1400 kPa	–	0.03895 ± 0.002 W/m/K
1500 kPa	–	0.03914 ± 0.002 W/m/K
1600 kPa	–	0.03932 ± 0.002 W/m/K
1700 kPa	–	0.0397 ± 0.002 W/m/K
1800 kPa	–	0.04008 ± 0.0021 W/m/K
1900 kPa	–	0.04047 ± 0.0021 W/m/K
2000 kPa	–	0.04087 ± 0.0021 W/m/K
2100 kPa	–	0.04127 ± 0.0021 W/m/K
2200 kPa	–	0.0419 ± 0.0021 W/m/K
2300 kPa	–	0.04254 ± 0.0022 W/m/K
2400 kPa	–	0.04342 ± 0.0022 W/m/K
2462 kPa	–	0.04388 ± 0.0022 W/m/K
2466 kPa	–	0.04388 ± 0.0022 W/m/K
2500 kPa	–	0.04434 ± 0.0022 W/m/K
2600 kPa	–	0.0453 ± 0.0023 W/m/K
2700 kPa	–	0.04656 ± 0.0023 W/m/K
2800 kPa	–	0.04846 ± 0.0024 W/m/K
2900 kPa	–	0.05075 ± 0.0025 W/m/K
2973 kPa	–	0.05292 ± 0.0026 W/m/K
2988 kPa	–	0.05356 ± 0.0026 W/m/K
3050 kPa	–	0.05558 ± 0.0027 W/m/K
3065 kPa	–	0.05634 ± 0.0027 W/m/K
3084 kPa	–	0.05785 ± 0.0028 W/m/K
3096 kPa	–	0.05908 ± 0.0029 W/m/K
3103 kPa	–	0.05968 ± 0.0029 W/m/K
3110 kPa	–	0.06064 ± 0.003 W/m/K
3116 kPa	–	0.06128 ± 0.003 W/m/K
3130 kPa	–	0.06341 ± 0.0032 W/m/K
3140 kPa	–	0.06508 ± 0.0033 W/m/K
3145 kPa	–	0.06587 ± 0.0033 W/m/K
3150 kPa	–	0.06678 ± 0.0033 W/m/K
3155 kPa	–	0.06787 ± 0.0034 W/m/K
3160 kPa	–	0.06879 ± 0.0034 W/m/K
3165 kPa	–	0.0699 ± 0.0034 W/m/K
3168 kPa	–	0.07058 ± 0.0034 W/m/K
3170 kPa	–	0.07104 ± 0.0034 W/m/K
3173 kPa	–	0.0718 ± 0.0034 W/m/K
3175 kPa	–	0.07228 ± 0.0035 W/m/K
3180 kPa	–	0.07336 ± 0.0035 W/m/K
3183 kPa	–	0.07404 ± 0.0035 W/m/K
3185 kPa	–	0.07447 ± 0.0035 W/m/K
3187 kPa	–	0.07504 ± 0.0035 W/m/K
3190 kPa	–	0.07571 ± 0.0035 W/m/K
3192 kPa	–	0.07616 ± 0.0035 W/m/K
3193 kPa	–	0.07629 ± 0.0036 W/m/K
3195 kPa	–	0.07668 ± 0.0036 W/m/K
3200 kPa	–	0.07761 ± 0.0036 W/m/K
3205 kPa	–	0.07821 ± 0.0037 W/m/K
3212 kPa	–	0.07869 ± 0.0039 W/m/K
3220 kPa	–	0.07869 ± 0.0039 W/m/K
3225 kPa	–	0.07855 ± 0.0039 W/m/K
3230 kPa	0.07155 ± 0.0034 W/m/K	0.07767 ± 0.0038 W/m/K
3232 kPa	0.07138 ± 0.0034 W/m/K	–
3234 kPa	0.07128 ± 0.0034 W/m/K	–
3235 kPa	–	0.07701 ± 0.0037 W/m/K
3236 kPa	0.07122 ± 0.0033 W/m/K	–
3238 kPa	0.07122 ± 0.0033 W/m/K	–
3240 kPa	–	0.07636 ± 0.0037 W/m/K
3242 kPa	0.07105 ± 0.0033 W/m/K	–
3245 kPa	0.07105 ± 0.0033 W/m/K	0.07571 ± 0.0036 W/m/K
3248 kPa	0.07105 ± 0.0033 W/m/K	–
3250 kPa	0.07072 ± 0.0033 W/m/K	0.07508 ± 0.0035 W/m/K
3252 kPa	0.07072 ± 0.0033 W/m/K	–
3254 kPa	0.07072 ± 0.0033 W/m/K	–
3255 kPa	–	0.07386 ± 0.0034 W/m/K
3256 kPa	0.07039 ± 0.0033 W/m/K	–
3258 kPa	0.07039 ± 0.0033 W/m/K	–
3260 kPa	0.07039 ± 0.0033 W/m/K	0.07266 ± 0.0034 W/m/K
3265 kPa	0.0704 ± 0.0033 W/m/K	0.07151 ± 0.0033 W/m/K
3270 kPa	0.07008 ± 0.0033 W/m/K	0.07151 ± 0.0033 W/m/K
3275 kPa	–	0.07209 ± 0.0034 W/m/K
3280 kPa	0.06975 ± 0.0033 W/m/K	0.07209 ± 0.0034 W/m/K
3285 kPa	–	0.07209 ± 0.0034 W/m/K
3290 kPa	0.0696 ± 0.0033 W/m/K	0.07267 ± 0.0034 W/m/K
3295 kPa	–	0.07267 ± 0.0034 W/m/K
3300 kPa	0.06944 ± 0.0033 W/m/K	0.07151 ± 0.0033 W/m/K
3305 kPa	–	0.07151 ± 0.0033 W/m/K
3310 kPa	0.06944 ± 0.0033 W/m/K	0.07151 ± 0.0033 W/m/K
3315 kPa	–	0.07095 ± 0.0033 W/m/K
3320 kPa	0.06912 ± 0.0032 W/m/K	–
3325 kPa	–	0.07095 ± 0.0033 W/m/K
3330 kPa	–	0.07095 ± 0.0033 W/m/K
3335 kPa	–	0.07144 ± 0.0033 W/m/K
3340 kPa	0.06881 ± 0.0032 W/m/K	0.07144 ± 0.0033 W/m/K
3345 kPa	–	0.07144 ± 0.0033 W/m/K
3350 kPa	0.0685 ± 0.0032 W/m/K	0.07144 ± 0.0033 W/m/K
3360 kPa	0.0685 ± 0.0032 W/m/K	0.07088 ± 0.0033 W/m/K
3365 kPa	–	0.07088 ± 0.0033 W/m/K
3370 kPa	0.0685 ± 0.0032 W/m/K	0.07033 ± 0.0033 W/m/K
3375 kPa	–	0.07033 ± 0.0033 W/m/K
3380 kPa	0.0685 ± 0.0032 W/m/K	–
3385 kPa	–	0.07033 ± 0.0033 W/m/K
3392 kPa	0.06834 ± 0.0032 W/m/K	–
3395 kPa	–	0.07033 ± 0.0033 W/m/K
3400 kPa	–	0.07033 ± 0.0033 W/m/K
3410 kPa	–	0.07088 ± 0.0033 W/m/K
3450 kPa	0.06819 ± 0.0032 W/m/K	0.07081 ± 0.0033 W/m/K
3455 kPa	–	0.07081 ± 0.0033 W/m/K
3460 kPa	–	0.07062 ± 0.0033 W/m/K and 0.07064 ± 0.0033 W/m/K
3470 kPa	–	0.07062 ± 0.0033 W/m/K
3480 kPa	–	0.07051 ± 0.0033 W/m/K
3490 kPa	–	0.07054 ± 0.0033 W/m/K
3500 kPa	0.0685 ± 0.0032 W/m/K	0.07026 ± 0.0033 W/m/K
3520 kPa	0.0686 ± 0.0032 W/m/K	–
3540 kPa	0.0686 ± 0.0032 W/m/K	–
3550 kPa	–	0.0701 ± 0.0033 W/m/K
3560 kPa	0.0686 ± 0.0032 W/m/K	–
3580 kPa	0.0686 ± 0.0032 W/m/K	–
3600 kPa	0.06851 ± 0.0032 W/m/K	0.07 ± 0.0033 W/m/K
3620 kPa	0.06851 ± 0.0032 W/m/K	–
3640 kPa	0.06854 ± 0.0032 W/m/K	–
3650 kPa	0.06857 ± 0.0032 W/m/K	0.06992 ± 0.0033 W/m/K
3670 kPa	0.0686 ± 0.0032 W/m/K	–
3680 kPa	0.06861 ± 0.0032 W/m/K	–
3700 kPa	0.06864 ± 0.0032 W/m/K	0.06992 ± 0.0033 W/m/K
3720 kPa	0.06873 ± 0.0032 W/m/K	–
3740 kPa	0.06883 ± 0.0032 W/m/K	–
3750 kPa	0.06886 ± 0.0032 W/m/K	0.06969 ± 0.0033 W/m/K
3800 kPa	0.06913 ± 0.0032 W/m/K	0.06964 ± 0.0033 W/m/K
3810 kPa	0.06917 ± 0.0032 W/m/K	–
3820 kPa	0.06922 ± 0.0032 W/m/K	–
3830 kPa	0.06922 ± 0.0032 W/m/K	–
3840 kPa	0.06919 ± 0.0032 W/m/K	–
3850 kPa	–	0.06975 ± 0.0033 W/m/K
3860 kPa	0.06928 ± 0.0032 W/m/K	–
3900 kPa	–	0.06992 ± 0.0033 W/m/K
3950 kPa	–	0.06992 ± 0.0033 W/m/K
3970 kPa	0.06973 ± 0.0033 W/m/K	–
3980 kPa	0.06964 ± 0.0033 W/m/K	–
4000 kPa	–	0.06992 ± 0.0033 W/m/K
4010 kPa	0.06977 ± 0.0033 W/m/K	–
4100 kPa	–	0.07009 ± 0.0033 W/m/K
4150 kPa	–	0.07009 ± 0.0033 W/m/K
4300 kPa	–	0.0702 ± 0.0033 W/m/K
4400 kPa	–	0.07048 ± 0.0033 W/m/K
4500 kPa	–	0.07048 ± 0.0033 W/m/K
4600 kPa	–	0.07077 ± 0.0033 W/m/K
4700 kPa	–	0.07105 ± 0.0033 W/m/K
4800 kPa	–	0.07105 ± 0.0033 W/m/K
